Measured values: the NIST ThermoML archive (doi:10.1021/je100102q)

Details: Gas, isochoric method

FCC(F)(F)F [1,1,1,2-tetrafluoroethane]
Details	molar volume [m3/mol]
253.09 K, 107.6 kPa	0.01875
272.92 K, 158.9 kPa	0.01358
282.69 K, 329.1 kPa	0.006516
282.8 K, 121.4 kPa	0.01878
292.87 K, 171.9 kPa	0.0136
292.89 K, 126.2 kPa	0.01878
302.58 K, 357.7 kPa	0.006522
313.1 K, 135.4 kPa	0.0188
313.1 K, 184.9 kPa	0.01361
323.07 K, 386.5 kPa	0.006528
333.03 K, 144.3 kPa	0.01882
333.03 K, 1610.8 kPa	0.001248
333.05 K, 197.5 kPa	0.01362
342.96 K, 413.7 kPa	0.006533
343 K, 1706.9 kPa	0.001248
352.93 K, 153.2 kPa	0.01883
352.94 K, 1798.6 kPa	0.001249
353.04 K, 210 kPa	0.01363
362.89 K, 440.7 kPa	0.006539
362.9 K, 1888.6 kPa	0.001249
372.82 K, 454 kPa	0.006542
372.84 K, 162.1 kPa	0.01885
372.87 K, 1976.6 kPa	0.00125
372.99 K, 222.4 kPa	0.01364

C=C(F)C(F)(F)F [2,3,3,3-tetrafluoro-1-propene]
Details	molar volume [m3/mol]
243.07 K, 98 kPa	0.01911
243.08 K, 84.5 kPa	0.02278
248.02 K, 86.5 kPa	0.02278
249.15 K, 87 kPa	0.02278
253.01 K, 105.1 kPa	0.01912
253.07 K, 88.5 kPa	0.02278
258.03 K, 90.4 kPa	0.02279
262.93 K, 171.7 kPa	0.01189
262.97 K, 109.8 kPa	0.01913
263.08 K, 92.4 kPa	0.02279
267.98 K, 94.2 kPa	0.0228
272.84 K, 179.3 kPa	0.01189
272.92 K, 114.4 kPa	0.01914
273.04 K, 96.2 kPa	0.0228
277.99 K, 98 kPa	0.02281
282.62 K, 118.8 kPa	0.01914
282.68 K, 186.6 kPa	0.0119
282.75 K, 430.2 kPa	0.004676
282.95 K, 99.9 kPa	0.02281
283 K, 394.6 kPa	0.005292
287.79 K, 101.7 kPa	0.02282
287.93 K, 447.1 kPa	0.004677
287.99 K, 403.8 kPa	0.005293
292.58 K, 193.9 kPa	0.0119
292.76 K, 103.6 kPa	0.02282
292.81 K, 457.2 kPa	0.004678
292.95 K, 412.8 kPa	0.005295
292.99 K, 123.5 kPa	0.01915
293.1 K, 508.2 kPa	0.004171
297.8 K, 105.5 kPa	0.02283
297.89 K, 467.6 kPa	0.00468
298.08 K, 422.1 kPa	0.005296
302.7 K, 201.4 kPa	0.01191
302.91 K, 477.9 kPa	0.004681
303.09 K, 431.1 kPa	0.005297
303.11 K, 703.6 kPa	0.002968
303.12 K, 107.4 kPa	0.02284
303.12 K, 128.1 kPa	0.01916
303.12 K, 531.3 kPa	0.004173
308.1 K, 439.9 kPa	0.005298
308.11 K, 109.3 kPa	0.02284
308.11 K, 488.4 kPa	0.004682
313.09 K, 448.7 kPa	0.005299
313.11 K, 111.2 kPa	0.02285
313.11 K, 498.5 kPa	0.004683
313.11 K, 554 kPa	0.004174
313.11 K, 738.1 kPa	0.002969
313.12 K, 132.7 kPa	0.01917
313.12 K, 209 kPa	0.01192
318.09 K, 457.5 kPa	0.0053
318.09 K, 508.5 kPa	0.004684
318.1 K, 113 kPa	0.02285
318.11 K, 861.5 kPa	0.002534
323.07 K, 518.3 kPa	0.004685
323.08 K, 114.9 kPa	0.02286
323.08 K, 466.1 kPa	0.005302
323.09 K, 216.2 kPa	0.01192
323.09 K, 576.5 kPa	0.004176
323.09 K, 771.8 kPa	0.00297
323.1 K, 137.1 kPa	0.01918
328.06 K, 474.7 kPa	0.005303
328.06 K, 528.3 kPa	0.004686
328.06 K, 901.7 kPa	0.002535
328.07 K, 116.8 kPa	0.02286
333.04 K, 118.8 kPa	0.02286
333.04 K, 483.3 kPa	0.005304
333.04 K, 538.1 kPa	0.004687
333.05 K, 537.8 kPa	0.004687
333.05 K, 598.7 kPa	0.004178
333.05 K, 804.7 kPa	0.002972
333.06 K, 141.6 kPa	0.01919
333.06 K, 223.4 kPa	0.01192
338 K, 1538.8 kPa	0.001325
338.01 K, 491.8 kPa	0.005305
338.02 K, 941.5 kPa	0.002536
338.03 K, 120.6 kPa	0.02287
338.03 K, 547.6 kPa	0.004688
342.99 K, 146.1 kPa	0.0192
342.99 K, 500.3 kPa	0.005306
343 K, 122.5 kPa	0.02287
343 K, 230.6 kPa	0.01193
343.01 K, 557.3 kPa	0.004689
343.01 K, 620.6 kPa	0.00418
343.02 K, 837.4 kPa	0.002973
347.94 K, 1624.6 kPa	0.001325
347.94 K, 2217.8 kPa	0.000789
347.96 K, 508.8 kPa	0.005307
347.97 K, 124.3 kPa	0.02288
347.98 K, 980.2 kPa	0.002537
347.98 K, 2157.7 kPa	0.000833
347.99 K, 567 kPa	0.00469
352.91 K, 517.2 kPa	0.005309
352.91 K, 2303.2 kPa	0.000789
352.96 K, 126.1 kPa	0.02288
352.96 K, 576.6 kPa	0.004691
352.96 K, 642.4 kPa	0.004182
352.96 K, 869.4 kPa	0.002974
352.98 K, 150.6 kPa	0.0192
352.98 K, 237.7 kPa	0.01194
352.99 K, 2237.2 kPa	0.000833
357.86 K, 2385.6 kPa	0.000789
357.88 K, 525.6 kPa	0.00531
357.92 K, 128 kPa	0.02289
357.93 K, 586.2 kPa	0.004692
357.93 K, 1018.7 kPa	0.002538
357.95 K, 1709 kPa	0.001326
357.95 K, 2314.1 kPa	0.000833
362.83 K, 2467.7 kPa	0.000789
362.86 K, 534 kPa	0.005311
362.89 K, 129.8 kPa	0.02289
362.89 K, 2389.2 kPa	0.000833
362.92 K, 595.8 kPa	0.004693
362.92 K, 664 kPa	0.004184
362.92 K, 3067.5 kPa	0.000251
362.93 K, 155 kPa	0.01921
362.93 K, 901.2 kPa	0.002976
362.96 K, 244.9 kPa	0.01194
367.8 K, 2548.9 kPa	0.000789
367.83 K, 542.5 kPa	0.005312
367.87 K, 131.9 kPa	0.0229
367.88 K, 1057 kPa	0.002539
367.88 K, 2463.9 kPa	0.000834
367.89 K, 605.3 kPa	0.004694
367.92 K, 1791.4 kPa	0.001326
367.92 K, 3386.9 kPa	0.000251
372.8 K, 2629.5 kPa	0.000789
372.81 K, 550.9 kPa	0.005313
372.82 K, 133.8 kPa	0.0229
372.84 K, 932.4 kPa	0.002977
372.85 K, 1075.9 kPa	0.00254
372.85 K, 2537.2 kPa	0.000834
372.87 K, 614.8 kPa	0.004695
372.88 K, 159.4 kPa	0.01922
372.88 K, 252 kPa	0.01195
372.88 K, 685.4 kPa	0.004185
372.88 K, 3715.9 kPa	0.000251
